Measurements reported in patent publication US8633315B2, “Substituted hydroxyethyl amine compounds as beta-secretase modulators and methods of use” (Amgen Inc., priority 2007, dated 2014).
pIC50: −log10 of the molar value. Like-named read-outs stand apart in the source and are kept apart here.

Columns and labels:
BACE1 = BACE1 (Homo sapiens, UniProt P56817); assay: In vitro enzymatic BACE FRET (fluorescence resonance energy transfer) assay; assay type: biochemical
How it was run: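 Cleavage of a quenched peptide FRET substrate (50 nM) in 0.05 M acetate pH 4.2, 10% DMSO, 100 uM genapol, 1 h incubation. Reaction stopped by Tris neutralization; fluorescence read at excitation 488 nm / […].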

[1] = test system: Cells stably expressing Amyloid Precursor Protein (APP); assay: In vitro BACE cell-based assay (HEK cell assay): Aβ40 in conditioned medium by sandwich ELISA
How it was run: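 APP-stably-expressing cells were grown 24 h in DMEM/10% FBS, then treated for 24 h with 10-point doses starting at 100 μM or 10 μM, at 0.1% DMSO final. Aβ40 in conditioned medium was measured by sandwich ELISA (pAb40 capture, biotinylated 6E10 detection, europium time-resolved fluorescence); IC50 from percent inhibition.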

[2] = Microsomal stability assay, human liver microsomes; assay type: in vitro ADME
Text: (§1) Microsomal Stability Assay

CYP3A4 (CYP3A) = CYP3A4 (CYP3A) (Homo sapiens, UniProt P08684); assay: CYP3A inhibition assay (midazolam, pooled human liver microsomes); assay type: in vitro ADME; conditions: human, pooled human liver microsomes, pH 7.4, probe midazolam (printed as about […]); read-out: 3A4 IC50
CYP3A4 (CYP3A), sequence (P08684 2-503): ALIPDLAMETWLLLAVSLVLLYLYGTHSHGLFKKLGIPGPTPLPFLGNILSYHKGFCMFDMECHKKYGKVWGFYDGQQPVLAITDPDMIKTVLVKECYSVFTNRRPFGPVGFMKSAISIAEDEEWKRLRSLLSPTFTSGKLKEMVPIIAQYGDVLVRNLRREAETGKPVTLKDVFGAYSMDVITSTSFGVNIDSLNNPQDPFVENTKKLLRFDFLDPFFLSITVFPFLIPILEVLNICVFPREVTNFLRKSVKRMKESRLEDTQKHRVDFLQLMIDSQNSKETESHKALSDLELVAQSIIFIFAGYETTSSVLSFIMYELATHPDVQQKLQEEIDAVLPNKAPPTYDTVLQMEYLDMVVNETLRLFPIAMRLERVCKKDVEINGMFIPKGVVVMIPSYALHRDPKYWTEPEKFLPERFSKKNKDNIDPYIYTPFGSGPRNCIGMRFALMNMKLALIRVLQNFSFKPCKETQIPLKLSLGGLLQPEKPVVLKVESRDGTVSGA

[3] = Microsomal stability assay, rat liver microsomes; assay type: in vitro ADME
Text: as §1

[4] = Homo sapiens, HEK293, 24 h, Aβ40 in conditioned medium after 24 h incubation

BACE1, sequence (P56817 46-501, species assumed): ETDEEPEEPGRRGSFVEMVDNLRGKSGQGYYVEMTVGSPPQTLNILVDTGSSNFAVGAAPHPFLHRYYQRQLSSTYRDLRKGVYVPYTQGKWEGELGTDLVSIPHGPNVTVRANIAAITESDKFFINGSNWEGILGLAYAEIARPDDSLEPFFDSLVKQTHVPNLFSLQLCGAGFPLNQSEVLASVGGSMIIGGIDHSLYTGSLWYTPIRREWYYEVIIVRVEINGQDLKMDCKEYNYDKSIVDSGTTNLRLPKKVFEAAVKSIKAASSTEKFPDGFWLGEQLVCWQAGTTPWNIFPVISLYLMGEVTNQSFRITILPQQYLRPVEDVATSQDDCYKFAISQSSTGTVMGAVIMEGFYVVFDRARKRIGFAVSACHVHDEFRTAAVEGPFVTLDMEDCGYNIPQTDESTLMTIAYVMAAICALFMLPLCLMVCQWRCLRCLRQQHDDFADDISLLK

Row | SMILES | pIC50 (BACE1) | pIC50 [1, 4] | pIC50 ([1]; Aβ40 in conditioned medium after 24 h incubation) | HLM [2] [µL/min/mg] | pIC50 (BACE1; read-out: BACE 1 FRET assay) | pIC50 ([1]; Homo sapiens, HEK293) | IC50 at 10 min (CYP3A4 (CYP3A)) [nM] | RLM [3] [µL/min/mg]
1 | C=CC[C@H](NC(=O)[C@@H](OC)C(C)C)[C@H](O)CN[C@H]1CC2(CCC2)Oc2ncc(CC(C)(C)C)cc21 [Example 149, (2S)-N-((1S)-1-((1R)-2-(((4′S)-6′-(2,2-dimethylpropyl)-3′,4′-dihydrospiro[cyclobutane-1,2′-pyrano[2,3-b]pyridin]-4′-yl)amino)-1-hydroxyethyl)-3-buten-1-yl)-3-methyl-2-(methyloxy)butanamide] | 6.03 | 5.73 |  |  |  |  |  | 
2 | C=CC[C@H](NC(=O)[C@H](OC)C(C)C)[C@H](O)CN[C@H]1CC2(CCC2)Oc2ncc(CC(C)(C)C)cc21 [Example 150, (2R)-N-((1S)-1-((1R)-2-(((4′S)-6′-(2,2-dimethylpropyl)-3′,4′-dihydrospiro[cyclobutane-1,2′-pyrano[2,3-b]pyridin]-4′-yl)amino)-1-hydroxyethyl)-3-buten-1-yl)-3-methyl-2-(methyloxy)butanamide] | 5.57 | 5.28 |  |  |  |  |  | 
3 | C=CC[C@H](NC(=O)C1(OC)CC1)[C@H](O)CN[C@H]1CC2(CCC2)Oc2ncc(CC(C)(C)C)cc21 [Example 151, N-((1S)-1-((1R)-2-(((4′S)-6′-(2,2-dimethylpropyl)-3′,4′-dihydrospiro[cyclobutane-1,2′-pyrano[2,3-b]pyridin]-4′-yl)amino)-1-hydroxyethyl)-3-buten-1-yl)-1-(methyloxy)cyclopropanecarboxamide] | 6.34 | 6.06 |  |  |  |  |  | 
4 | C=CCC(NC(=O)C1CN(C(=O)N2CCCCC2)CCO1)C(O)CNC1CC2(CCC2)Oc2ncc(CC(C)(C)C)cc21 (centres unmarked) [Example 152] | 7.92 | 8.40 |  |  |  |  |  | 
5 | C=CCC(NC(=O)C1CC1OCC)C(O)CNC1CC2(CCC2)Oc2ncc(CC(C)(C)C)cc21 [Example 153, (1R,2R)-N-((1S)-1-((1R)-2-(((4′S)-6′-(2,2-dimethylpropyl)-3′,4′-dihydrospiro[cyclobutane-1,2′-pyrano[2,3-b]pyridin]-4′-yl)amino)-1-hydroxyethyl)-3-buten-1-yl)-2-(ethyloxy)cyclopropanecarboxamide; (1S,2S)-N-((1S)-1-((1R)-2-(((4′S)-6′-(2,2-dimethylpropyl)-3′,4′-dihydrospiro[cyclobutane-1,2′-pyrano[2,3-b]pyridin]-4′-yl)amino)-1-hydroxyethyl)-3-buten-1-yl)-2-(ethyloxy)cyclopropanecarboxamide] | 6.98 | 6.89 |  |  |  |  |  | 
6 | C=CCC(NC(=O)C1CC1OCC)C(O)CNC1CC2(CCC2)Oc2ncc(CC(C)(C)C)cc21 [Example 154, (1R,2S)-N-((1S)-1-((1R)-2-(((4′S)-6′-(2,2-dimethylpropyl)-3′,4′-dihydrospiro[cyclobutane-1,2′-pyrano[2,3-b]pyridin]-4′-yl)amino)-1-hydroxyethyl)-3-buten-1-yl)-2-(ethyloxy)cyclopropanecarboxamide; (1S,2R)-N-((1S)-1-((1R)-2-(((4′S)-6′-(2,2-dimethylpropyl)-3′,4′-dihydrospiro[cyclobutane-1,2′-pyrano[2,3-b]pyridin]-4′-yl)amino)-1-hydroxyethyl)-3-buten-1-yl)-2-(ethyloxy)cyclopropanecarboxamide] | 6.86 |  | 6.62 |  |  |  |  | 
7 | C=CCC(NC(=O)C1CN(C(C)=O)CCO1)C(O)CNC1CC2(CCC2)Oc2ncc(CC(C)(C)C)cc21 [Example 155, (2R)-4-acetyl-N-((1S)-1-((1R)-2-(((4′S)-6′-(2,2-dimethylpropyl)-3′,4′-dihydrospiro[cyclobutane-1,2′-pyrano[2,3-b]pyridin]-4′-yl)amino)-1-hydroxyethyl)-3-buten-1-yl)-2-morpholinecarboxamide; (2S)-4-acetyl-N-((1S)-1-((1R)-2-(((4′S)-6′-(2,2-dimethylpropyl)-3′,4′-dihydrospiro[cyclobutane-1,2′-pyrano[2,3-b]pyridin]-4′-yl)amino)-1-hydroxyethyl)-3-buten-1-yl)-2-morpholinecarboxamide] | 7.31 | 7.22 |  |  |  |  |  | 
8 | C=CCC(NC(=O)C1CN(C(=O)C(C)C)CCO1)C(O)CNC1CC2(CCC2)Oc2ncc(CC(C)(C)C)cc21 (centres unmarked) [Example 156] | 7.55 | 7.48 |  |  |  |  |  | 
9 | C=CC[C@H](NC(=O)COC)[C@H](O)CN[C@H]1CC2(CCC2)Oc2c1cc(CC(C)(C)C)cc2-n1ccnc1 [Example 216, N-((1S)-1-((1R)-2-(((4S)-6-(2,2-dimethylpropyl)-8-(1H-imidazol-1-yl)-3,4-dihydrospiro[chromene-2,1′-cyclobutan]-4-yl)amino)-1-hydroxyethyl)-3-buten-1-yl)-2-methoxyacetamide] |  |  |  | 49 | 6.35 | 6.48 | 200 | 150
10 | C#CC[C@H](NC(C)=O)[C@H](O)CNC1CC2(CCC2)Oc2c1cc(CC(C)(C)C)nc2NC (some centres unmarked) [Example 221] |  |  |  | 61 | 7.11 | 7.24 | 1900 | 106

The next lines start with the values.

Row | pIC50 (BACE1) | pIC50 [1, 4] | pIC50 ([1]; Aβ40 in conditioned medium after 24 h incubation) | HLM [2] [µL/min/mg] | pIC50 (BACE1; read-out: BACE 1 FRET assay) | pIC50 ([1]; Homo sapiens, HEK293) | IC50 at 10 min (CYP3A4 (CYP3A)) [nM] | RLM [3] [µL/min/mg] | SMILES
11 |  |  |  | 40.5 | 6.32 | 6.38 | 200 | 337 | C=CC[C@H](NC(=O)[C@@H](C)OC)[C@H](O)CN[C@H]1CC2(CCC2)Oc2c1cc(CC(C)C)cc2-n1ccnc1 [compound 208, (2R)-N-((1S)-1-((1R)-1-hydroxy-2-(((4S)-8-(1H-imidazol-1-yl)-6-(2-methylpropyl)-3,4-dihydrospiro[chromene-2,1′-cyclobutan]-4-yl)amino)ethyl)-3-buten-1-yl)-2-methoxypropanamide]
12 |  |  |  | 31 | 6.47 | 6.48 | 100 | 183 | C=CC[C@H](NC(=O)COC)[C@H](O)CN[C@H]1CC2(CCC2)Oc2c1cc(CC(C)C)cc2-n1ccnc1 [compound 209]
13 |  |  |  | 829 | 7.04 | 5.95 | 200 | 644 | C=CC[C@H](NC(=O)[C@@H](C)OC)[C@H](O)CN[C@H]1CC2(CCC2)Oc2c(-c3nccs3)cc(CC(C)C)cc21 [compound 210]
14 |  |  |  | 104 | 7.82 | 7.24 | 1300 | 137 | C=CC[C@H](NC(=O)[C@H]1CCC(=O)O1)[C@H](O)CN[C@H]1CC2(CCC2)Oc2ncc(CC(C)(C)C)cc21 [compound 211]
15 |  |  |  | 775 | 7.04 | 6.58 | 700 | 399 | C=CC[C@H](NC(=O)COC)[C@H](O)CN[C@H]1CC2(CCC2)Oc2c(-c3nccs3)cc(CC(C)C)cc21 [compound 212, N-((1S)-1-((1R)-1-hydroxy-2-(((4S)-6-(2-methylpropyl)-8-(1,3-thiazol-2-yl)-3,4-dihydrospiro[chromene-2,1′-cyclobutan]-4-yl)amino)ethyl)-3-buten-1-yl)-2-methoxyacetamide]
16 |  |  |  | 36 | 7.22 | 6.47 | 27000 | 25 | CC[C@H](NC(C)=O)[C@H](O)CN[C@H]1CC2(CCC2)Oc2ncc(CC(C)(C)C)cc21 [compound 213]
17 |  |  |  | 492 | 7.36 | 5.66 | 900 | 247 | C=CC[C@H](NC(=O)COC)[C@H](O)CN[C@H]1CC2(CCC2)Oc2c(Br)cc(CC(C)(C)C)cc21 [compound 214]
18 |  |  |  | 736 | 7.24 | 6.08 | 1000 | 551 | C=CC[C@H](NC(=O)COC)[C@H](O)CN[C@H]1CC2(CCC2)Oc2c(-c3nccs3)cc(CC(C)(C)C)cc21 [compound 215]
19 |  |  |  | 551 | 7.70 | 6.04 | 200 | 477 | C=CC[C@H](NC(=O)COC)[C@H](O)CN[C@H]1CC2(CCC2)Oc2c(-c3cncs3)cc(CC(C)(C)C)cc21 [compound 217]
20 |  |  |  | 215 | 6.75 | 7.15 | 300 | 185 | C=CC[C@H](NC(=O)COC)[C@H](O)CN[C@H]1CC2(CCC2)Oc2c(-c3cnc[nH]3)cc(CC(C)(C)C)cc21 [compound 218, N-((1S)-1-((1R)-2-(((4S)-6-(2,2-dimethylpropyl)-8-(1H-imidazol-5-yl)-3,4-dihydrospiro[chromene-2,1′-cyclobutan]-4-yl)amino)-1-hydroxyethyl)-3-buten-1-yl)-2-methoxyacetamide]
21 |  |  |  |  | 6.27 | 5.55 |  |  | CCC[C@H](NC(=O)[C@@H]1CCCO1)[C@H](O)CN[C@H]1CC2(CCC2)Oc2c1cc(CC(C)(C)C)nc2Cl [compound 224, (2S)-N-((1S)-1-((1R)-2-(((4′S)-8′-chloro-6′-(2,2-dimethylpropyl)-3′,4′-dihydrospiro[cyclobutane-1,2′-pyrano[2,3-c]pyridin]-4′-yl)amino)-1-hydroxyethyl)butyl)tetrahydro-2-furancarboxamide]
22 |  |  |  |  | 5.42 | 6.16 |  |  | C=CC[C@H](NC(=O)C1COC(c2ccccn2)O1)[C@H](O)CNC1CC2(CCC2)Oc2ncc(CC(C)(C)C)cc21 (stereo partly drawn) [compound 242, N-((1S)-1-((1R)-2-((6′-(2,2-dimethylpropyl)-3′,4′-dihydrospiro[cyclobutane-1,2′-pyrano[2,3-b]pyridin]-4′-yl)amino)-1-hydroxyethyl)-3-buten-1-yl)-2-(2-pyridinyl)-1,3-dioxolane-4-carboxamide]
